Like-named read-outs stand apart in the source and are kept apart here.
Assays:
[1] = Test A: food intake, body weight and serum biochemistry, DGAT inhibitor, fenofibrate or both in diet; assay type: in vivo, DIO C57BL/6 mice; conditions: 12 day trial, 45 kcal % fat diet; for cumulative food intake less than the control group: 0.04% D and/or 0.05% F in diet, only D+F significant (P<0.05)
Excerpt: Diet was provided in powder form.
At the end of test A, blood was collected under isoflurane anesthesia for serum biochemistry determinations.

[2] = 0.04% compound 358 of Class D and/or 0.05% fenofibrate in diet
Description: Male C57BL/6 mice were housed in individually ventilated cages under controlled temperature (21° C.), humidity (45-65%) and light (12 h-12 h reverse light/dark cycle; Lights on—6 PM-6 AM). Mice were set on 60 kcal % fat energy diet until their average body weight was over 45 grams, at which time they were switched to a 45 kcal % fat diet.
For the purpose of Tests A, B and C, the mice were moved into modified type-2 cages with: doublewide food cup, wire grids and a tissue for bedding for several months before experiment to adapt to new housing/feeding conditions. Food (Research diets 45 kcal % diet D12451—see Scheme A) was provided in powdered form in a food hopper located off the front of the cage. […]
The mice were weighted the day before trial onset. […] The food intake the day before trial onset was also measured. […]
Food cups were filled and weighted daily during the experiment. Body weight was recorded every 2nd or 3rd day.
Food Intake and Body Weight data were analyzed using General Linear Models procedures appropriate for a 2×2 factorial design with blocking and repeated measures. […] Results were expressed as means±SEM (standard error of the mean). […]

human DGAT1 = molecular target: T1, human DGAT1 (Homo sapiens, UniProt O75907); assay: DGAT1 FlashPlate assay: inhibition of DGAT1 activity in membrane preparations; assay type: biochemical; conditions: human DGAT1 membranes from SF9 cells, [3H]-oleoylCoA, 120 min at 37° C.; read-out: pIC50 (-logIC50, 50% inhibition of DGAT1 activity) (converted)
T1 construct: FLAG (N); made in house; host or cells: SF9 insect cells (pFastBac / baculovirus); total cell membranes
T1 sequence (O75907 1-488): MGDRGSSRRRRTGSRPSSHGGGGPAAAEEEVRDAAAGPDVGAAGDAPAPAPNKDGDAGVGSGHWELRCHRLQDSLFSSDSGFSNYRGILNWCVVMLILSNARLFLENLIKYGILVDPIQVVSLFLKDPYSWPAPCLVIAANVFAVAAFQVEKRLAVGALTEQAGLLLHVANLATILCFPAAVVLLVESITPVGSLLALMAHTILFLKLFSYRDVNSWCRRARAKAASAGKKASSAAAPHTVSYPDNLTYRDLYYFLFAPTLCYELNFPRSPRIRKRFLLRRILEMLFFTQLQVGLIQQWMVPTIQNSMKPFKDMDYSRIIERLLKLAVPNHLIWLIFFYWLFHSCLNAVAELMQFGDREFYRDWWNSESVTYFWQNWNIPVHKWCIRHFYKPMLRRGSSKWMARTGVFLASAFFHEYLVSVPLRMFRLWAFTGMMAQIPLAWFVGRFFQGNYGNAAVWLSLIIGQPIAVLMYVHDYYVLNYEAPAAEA
Excerpt: The inhibiting activity of compounds of Class A, Class B, Class C and Class D on DGAT1 activity was screened in a single well procedure assay using DGAT1 comprising membrane preparations and DGAT1 substrate comprising micelles and determining formed radio-active triacylglycerol coming in close proximity of a flashplate surface by radioluminescence.
Said assay is described in full detail in WO2006/067071, the content of which is incorporated herein by reference.
By DGAT1 activity is meant the transfer of coenzyme A activated fatty acids to the 3-position of 1,2-diacylglycerols, thus forming a triglyceride molecule, by enzyme DGAT1.
human DGAT1 (NM012079.2) was cloned into the pFastBac vector, containing translation start, a FLAG-tag at the N-terminus as described in literature and a viral Kozak sequence (AAX) preceding the ATG to improve expression in insect cells. Expression was done as described in literature (Cases, S., Smith, S. J., Zheng, Y., Myers H. M., Lear, S. R., Sande, E., Novak, S., Collins, C., Welch, C. B., Lusis, A. J., Erickson, S. K. and Farese, R. V. (1998) Proc. Natl. Acad. Sci. USA 95, 13018-13023.) using SF9 cells.
72h transfected SF9 cells were collected by centrifugation (13000 rpm-15 min-4° C.) and lysed in 2×500 ml lysisbuffer (0.1M Sucrose, 50 mM KCl, 40 mM KH2PO4, 30 mM EDTA pH 7.2. Cells were homogenized by cell disruptor. After centrifugation 1380 rpm-15 min-4° C. (SN discarded), pellet was resuspended in 500 ml lysisbuffer and total cell membranes collected by ultracentrifugation at 34000 rpm(100 000 g) for 60 min (4° C.). The collected membranes were resuspended in lysis buffer, divided in aliquots and stored with 10% glycerol at −80° C. until use.
• a) 1,2-dioleoyl-sn-glycerol, 10 mg/ml (1,2-diacylglycerol (DAG)) Dissolve in acetonitrile; evaporate the acetonitrile solution under nitrogen and reconstitute in chloroform at a final concentration of 10 mg/ml. • b) L-α-phosphatidylcholine, 1 mg/ml (phosphatidylcholine (PC)) • Dissolve in chloroform at a final concentration of 1 mg/ml and store at 4° C. • c) L-α-phosphatidyl-L-serine, 1 mg/ml (phophatidylserine (PS)) • Dissolve in chloroform at a final concentration of 1 mg/ml and store at 4° C. Method
Add 1 ml dioleoyl-sn-glycerol (10 mg/ml) to 10 ml of L-α-phosphatidylcholine (1 mg/ml) and 10 ml of L-α-phosphatidyl-L-serine (1 mg/ml) in a thick glass recipient. Evaporate under nitrogen and put on ice for 15 min Reconstitute in 10 ml Tris/HCl (10 mM, pH 7.4) by sonication on ice. The sonification process includes sonification cycles of 10 seconds in the sonification bath followed by 10 seconds cool down on ice and repeating this sonification cycle till a homogeneous solution is obtained (takes about 15 min). The thus obtained micelles are stored at −20° C. till later use and contain DAG at a final concentration of 1.61 mM.
• a) Assaybuffer • 50 mM Tris-HCl (pH 7.4), 150 mM MgCl2, 1 mM EDTA, 0.2% BSA. • b) N-ethylmaleimide, 5M • Dissolve 5 g into a final volume of 8 ml DMSO 100% and store at −20° C. in aliquots till later use. • c) Substrate mix (for 1 384 well plate=3840 μl) • 612 μl micelles stock (51 μM final) • 16.6 μl oleoylCoA 9.7 mM • 23 μl [^3H]-oleoylCoA (49 Ci/mmol, 500 μCi/ml) • 3188.4 μl Tris pH 7.4, 10 mM • d) Enzyme mix (for 1 384 well plate=3520 μl) (5 μg/ml) • Add 11.73 μl of DGAT membrane stock (1500 μg/ml stock) to 3508 μl assay buffer. • e) Stop mix (for 1 384 well plate=7.68 ml) (250 mM) • Add 384 μl of N-ethylmaleimide (5M) to 3.456 ml DMSO 100%, and further dilute 3.84 ml of said solution with 3.84 ml DMSO 10%. Method
DGAT activity in membrane preparations was assayed in 50 mM Tris-HCl (pH 7.4), 150 mM MgCl2, 1 mM EDTA and 0.2% BSA, containing 50 μM DAG, 32 μg/ml PC/PS and 8.4 μM [^3H]-oleoylCoA (at a specific activity of 30 nCi/well) in a final volume of 50 μl in 384-well format using the red shifted Basic Image FlashPlate™ (Perkin Elmer Cat.No. SMP400). […]

For `CC(C)OC(=O)C(C)(C)Oc1ccc(C(=O)c2ccc(Cl)cc2)cc1` [fenofibrate, reference compound], the “cumulative food intake less than the control group” value [1] was 7.5%.
In the case of `COc1ccc(CC(=O)Nc2ccc(N3CCN(C(=O)Nc4c(Cl)cc(CN5CCCC5)cc4Cl)CC3)cc2)cc1` [compound 223 of Class D], the “cumulative food intake less than the control group” value [1] is reported as 3.2% and the “daily food intake compared to control mice” value ([1]; 0.04% compound 223 of Class D (D) and/or 0.05% fenofibrate (F) in diet) is reported as “not significantly less than control mice”.
With `COc1cc(CNC(=O)c2ccc(N3CCN(C(=O)Cc4c(Cl)cc(CN5CCCC5)cc4Cl)CC3)cc2)cc(OC)c1` [358-Class D, 4-[4-[[2,6-dichloro-4-(1-pyrrolidinylmethyl)phenyl]acetyl]-1-piperazinyl]-N-[(3,5-dimethoxyphenyl)methyl]-benzamide] the melting point was 199 to 200 °C, the “21 days body weight change compared to controls (2x2 factorial)” value ([2]; main effects P<0.05, interaction P>0.05) was “gained less weight than controls” and the “daily food intake compared to control mice” value ([2]; 45 kcal % fat diet, n=8/group) was “not significantly less than control mice”. The IC50 (human DGAT1) was 25.7 nM.
Molecule `O=C(Nc1cccc(N2CCCC2)c1)c1ccc(N2CCN(C(=O)Cc3ccc(CN4CCCC4)cc3Cl)CC2)cc1` [151-Class C, 4-[4-[[2-chloro-4-(1-pyrrolidinylmethyl)phenyl]acetyl]-1-piperazinyl]-N-[3-(1-pyrrolidinyl)phenyl]-benzamide] has a melting point of 224.1 to 225.4 °C and an IC50 (human DGAT1) of 316 nM.
In the case of `O=C(Nc1cccc(N2CCCC2)c1)c1ccc(N2CCN(C(=O)C(O)c3ccc(CN4CCCC4)cc3Cl)CC2)cc1` (centres unmarked) [152-Class C, 4-[4-[[2-chloro-4-(1-pyrrolidinylmethyl)phenyl]hydroxyacetyl]-1-piperazinyl]-N-[3-(1-pyrrolidinyl)phenyl]-benzamide], the melting point is reported as 138.7 to 140.9 °C and the IC50 (human DGAT1) is reported as 35.5 nM.
Molecule `CCN1CCN(Cc2cc(Cl)c(CC(=O)N3CCN(c4ccc(C(=O)NCc5cc(OC)cc(OC)c5)cc4)CC3)c(Cl)c2)CC1` [360-Class D, 4-[4-[[2,6-dichloro-4-[(4-ethyl-1-piperazinyl)methyl]phenyl]acetyl]-1-piperazinyl]-N-[(3,5-dimethoxyphenyl)methyl]-benzamide] has a melting point of 159 to 160 °C and an IC50 (human DGAT1) of 7.59 nM.
Work on `CCN1CCN(Cc2cc(Cl)c(CC(=O)N3CCN(c4ccc(C(=O)NCc5cccc(N6CCCC6)c5)cc4)CC3)c(Cl)c2)CC1` [359-Class D, 4-[4-[[2,6-dichloro-4-[(4-ethyl-1-piperazinyl)methyl]phenyl]acetyl]-1-piperazinyl]-N-[[3-(1-pyrrolidinyl)phenyl]methyl]-benzamide] yielded a melting point of 240 to 241 °C and an IC50 (human DGAT1) of 28.2 nM.
For `COc1ccc(CC(=O)Nc2ccc(N3CCN(C(=O)Cc4ccc(CN5CCCC5)cc4Cl)CC3)cc2)cc1` [355-Class D, N-[4-[4-[[2-chloro-4-(1-pyrrolidinylmethyl)phenyl]acetyl]-1-piperazinyl]phenyl]-4-methoxy-benzeneacetamide], the melting point was 153.3 to 155.2 °C and the IC50 (human DGAT1) was 912 nM.

Reference: patent US9107946B2, “Drug combinations comprising a DGAT inhibitor and a PPAR-agonist” (Janssen Pharmaceutica NV, priority 2008, dated 2015)
